Legend:
[1] = Inhibition of HCV 1a H77 NS5B polymerase after 3 hrs by [3H]UTP incorporation assay; parameters: species or system Hepatitis C virus (isolate H77)
[2] = test system: Hepatitis C virus; experiment: Antiviral activity against HCV 1b N infected in EN5-3 cells by SEAP reporter gene assay; format: functional, organism-based, Hepacivirus hominis; conditions: genotype 1b strain N
[3] = test system: Hepatitis C virus; experiment: Antiviral activity against HCV 1a isolate H77 infected in EN5-3 cells by SEAP reporter gene assay; format: functional, organism-based, Hepacivirus hominis; conditions: genotype 1a H77, EN5-3
[4] = Inhibition of HCV 1b BK NS5B polymerase after 3 hrs by [3H]UTP incorporation assay; parameters: species or system Hepatitis C virus (isolate BK)

Row | Structure (SMILES) | IC50 [1] [nM] | EC50 [2] [nM] | EC50 [3] [nM] | IC50 [4] [nM]
1 | CC(C)(C)CC[C@@]1(C)C(=O)C(C2=NS(=O)(=O)c3cc(NS(C)(=O)=O)ccc3N2)=C(O)c2ccccc21 | 4 | 2 | 4 | 7
2 | CC(C)CCC1=C/C(=C2\C(=O)c3ccccc3[C@@](C)(CCC(C)(C)C)C2=O)Nc2ccc(NS(C)(=O)=O)cc21 | 4300 |  |  | 1020
3 | CC(C)(C)CC[C@@]1(C)C(=O)C(C2=NCc3cc(NS(C)(=O)=O)ccc3N2)=C(O)c2ccccc21 | 830 |  |  | 4200
4 | CCOC(=O)C1=C/C(=C2\C(=O)c3ccccc3[C@@](C)(CCC(C)(C)C)C2=O)Nc2ccc(NS(C)(=O)=O)cc21 | 315 | 660 | 3080 | 739
5 | CC(C)(C)CC[C@@]1(C)C(=O)/C(=C2/C=Cc3ccccc3N2)C(=O)c2ccccc21 | 1680 |  |  | 5550
6 | CC(C)(C)CC[C@@]1(C)C(=O)/C(=C2/C=C(C(=O)O)c3cc(NS(C)(=O)=O)ccc3N2)C(=O)c2ccccc21 | 3 | 221 | 3320 | 5
7 | CNC(=O)C1=C/C(=C2\C(=O)c3ccccc3[C@@](C)(CCC(C)(C)C)C2=O)Nc2ccc(NS(C)(=O)=O)cc21 | 133 | 245 | 1040 | 333
8 | CN(C)C(=O)C1=C/C(=C2\C(=O)c3ccccc3[C@@](C)(CCC(C)(C)C)C2=O)Nc2ccc(NS(C)(=O)=O)cc21 | 72 | 99 | 932 | 238

Other lines, results leading:

Row | IC50 [1] [nM] | EC50 [2] [nM] | EC50 [3] [nM] | IC50 [4] [nM] | Structure (SMILES)
9 | 15 | 168 | 1200 | 25 | CC(C)(C)CC[C@@]1(C)C(=O)/C(=C2/C=C(C=O)c3cc(NS(C)(=O)=O)ccc3N2)C(=O)c2ccccc21
10 | 17 | 22 | 82 | 29 | CC(C)(C)CC[C@@]1(C)C(=O)/C(=C2/C=Cc3cc(NS(C)(=O)=O)ccc3N2)C(=O)c2ccccc21
11 | 12 | 50 | 781 | 56 | CC(C)(C)CC[C@@]1(C)C(=O)/C(=C2/C=C(CO)c3cc(NS(C)(=O)=O)ccc3N2)C(=O)c2ccccc21
12 | 32 | 20 | 135 | 52 | CC1=C/C(=C2\C(=O)c3ccccc3[C@@](C)(CCC(C)(C)C)C2=O)Nc2ccc(NS(C)(=O)=O)cc21

Source: ChEMBL document CHEMBL1681718, “Hepatitis C NS5B polymerase inhibitors: functional equivalents for the benzothiadiazine moiety” (Bioorg Med Chem Lett, 2011)
